From patent publication US10774074B2, “2-(1-heteroarylpiperazin-4-yl)methyl-1,4-benzodioxane derivatives as alpha2C antagonists” (ORION CORPORATION, priority 2015, dated 2020)
Counter-ions that a name gives are not always drawn.

What was measured:
[1] = biological target: T1, human alpha2C receptors (Homo sapiens, UniProt P18825); test: Determination of alpha2C antagonistic activity in vitro (FLIPR calcium assay, CHO cells); format: cell-based; details: for Kb: Kb calculated with the Cheng-Prusoff equation from IC50, adrenaline as agonist, CHO cells, human alpha2C, read-out: Alpha 2C Adrenaline Kb; for IC50: antagonism of adrenaline stimulation, CHO cells stably transfected with human alpha2C receptor and Gα16, intracellular calcium (FLIPR), read-out: Alpha 2C Adrenaline IC50
T1 construct: host or cells: CHO cells, cotransfected with pCEP-Gα16
T1 sequence (P18825 1-462): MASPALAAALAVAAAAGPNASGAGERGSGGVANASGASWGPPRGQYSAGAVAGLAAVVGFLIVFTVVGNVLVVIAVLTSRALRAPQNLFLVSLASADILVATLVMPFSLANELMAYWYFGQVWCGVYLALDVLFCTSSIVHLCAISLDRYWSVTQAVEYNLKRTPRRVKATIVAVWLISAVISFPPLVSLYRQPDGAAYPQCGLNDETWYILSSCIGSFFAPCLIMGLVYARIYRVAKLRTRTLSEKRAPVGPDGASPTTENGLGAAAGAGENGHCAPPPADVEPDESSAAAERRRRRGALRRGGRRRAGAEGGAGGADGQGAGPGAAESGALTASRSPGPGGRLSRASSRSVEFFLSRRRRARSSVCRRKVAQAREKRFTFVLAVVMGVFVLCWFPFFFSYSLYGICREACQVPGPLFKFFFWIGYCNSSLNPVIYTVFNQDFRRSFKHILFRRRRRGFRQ
Experimental: (§1) EXPERIMENT 1: Determination of alpha2A and alpha2C Antagonistic Activity In Vitro
(§2) Chinese hamster ovary (CHO) cells stably transfected with human alpha2A or alpha2C receptors (University of Turku, Finland) were cotransfected with the expression vector pCEP-Gα16 (Molecular Devices, CA, USA) were used in this experiment. The cells were maintained at 37° C. in a 5% CO2/95% air atmosphere. The cells were cultured in HAM F-12 medium supplemented with 10% FCS, 25 mM HEPES, 100 IU/ml penicillin, 100 µg/ml streptomycin, 500 μg/ml geneticin and 240 μg/ml hygromycin B. The cells were subcultured twice weekly with 0.25% trypsin and 1 mM EDTA. The subculture ratio was 1:5-1:20. The growth medium was changed every 2 or 3 days. All cell culture reagents were from Gibco. The day before the experiment the cells were plated into black-walled, clear bottom 384-well plates at a density of 10,000 cells/well.
(§3) The growth medium was removed and the cells were incubated with the test compounds and the FLIPR Calcium 6 Assay reagent (Molecular Devices, CA, USA) for 2 h at 37° C. in dark. The test compounds (concentrations in cells 100 pM-10 μM) were dissolved in Probenecid-Ringer consisting of 150 mM NaCl, 3 mM KCl, 1.2 mM MgCl2, 1 mM CaCl2, 5 mM glucose, 20 mM HEPES and 2.5 mM probenecid (pH 7.4 adjusted with 1.0 M NaOH). The osmolarity was adjusted to 322 milliosmoles with Osmostat® OM-6020 osmometer (DIC Kyoto Daiichi Kagagu Co. Ltd, Japan). […] All experiments were performed at 37° C. For agonism measurements the test compounds dissolved in Probenecid-Ringer were applied by FLIPR Tetra at 15 s time point. In order to determine antagonism, the cells were stimulated either with 100 nM adrenaline or noradrenaline and the test compounds were added to the cells 2 h before the experiment with the FLIPR Calcium 6 Assay reagent. […] Typically, there were four replicates at each concentration and six different dose levels. For example, if the number of plates from which results were obtained was three, 72 (4*6*3) wells were thus measured to construct dose-response relationship. The samples were excited at 485 nm and emission was detected at 525 nm with a 515 nm cut-off filter. The minimum fluorescence value subtracted from the maximum value for each well was used in the calculations. ScreenWorks version 4.0 software was used for analyzing the results. Fitting of the antagonist dose-response results was performed with the free Hill equation and the IC50 values were fitted with IDBS XE software using model 200: y=(A+(B/(1+((x/C)^D)))), where A is the curve maximum, B the curve minimum and C equals the EC50 value. D is slope factor (Hill). Kb was calculated with the Cheng-Prusoff equation Kb=A/((B/C)+1), where A is the IC50 of antagonist, B the concentration of agonist and C the EC50 of the agonist.

[2] = biological target: T2, human alpha2A receptors (Homo sapiens, UniProt P08913); test: Determination of alpha2A antagonistic activity in vitro (FLIPR calcium assay, CHO cells); format: cell-based; details: for Kb: Kb calculated with the Cheng-Prusoff equation from IC50, adrenaline as agonist, CHO cells, human alpha2A, read-out: Alpha 2A Adrenaline Kb; for IC50: antagonism of adrenaline stimulation, CHO cells stably transfected with human alpha2A receptor and Gα16, intracellular calcium (FLIPR), read-out: Alpha 2A Adrenaline IC50
T2 construct: host or cells: CHO cells, cotransfected with pCEP-Gα16
T2 sequence (P08913 1-465): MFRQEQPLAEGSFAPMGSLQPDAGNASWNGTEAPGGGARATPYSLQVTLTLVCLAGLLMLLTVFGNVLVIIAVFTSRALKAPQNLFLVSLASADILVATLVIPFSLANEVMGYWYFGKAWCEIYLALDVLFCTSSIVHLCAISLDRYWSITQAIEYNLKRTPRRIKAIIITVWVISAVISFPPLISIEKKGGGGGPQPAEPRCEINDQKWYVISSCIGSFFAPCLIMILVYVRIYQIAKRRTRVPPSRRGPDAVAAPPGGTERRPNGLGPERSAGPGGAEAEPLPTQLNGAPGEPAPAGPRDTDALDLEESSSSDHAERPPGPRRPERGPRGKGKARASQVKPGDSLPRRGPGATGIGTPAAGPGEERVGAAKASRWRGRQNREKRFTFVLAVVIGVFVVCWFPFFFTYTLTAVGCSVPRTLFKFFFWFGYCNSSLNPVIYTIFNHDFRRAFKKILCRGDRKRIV
Experimental: as §1, §2, §3

Row | SMILES | Kb [1] [nM] | IC50 [1] [nM] | Kb [2] [nM] | IC50 [2] [nM]
1 | COCc1scnc1N1CCN(C[C@H]2COc3ccccc3O2)CC1 [Compound of example 8, (S)-4-(4-((2,3-Dihydrobenzo[b][1,4]dioxin-2-yl)methyl)piperazin-1-yl)-5-(methoxymethyl)thiazole] | < 0.1 | < 0.01 | 88 | 1970
2 | O=C1OCCN1c1nsnc1N1CCN(C[C@H]2COc3ccccc3O2)CC1 [Compound of example 26, (S)-3-(4-(4-((2,3-Dihydrobenzo[b][1,4]dioxin-2-yl)methyl)piperazin-1-yl)-1,2,5-thiadiazol-3-yl)oxazolidin-2-one] | 183 | 18.5 | > 449 | > 10000
3 | CC1(C)CCN(c2nsnc2N2CCN(C[C@H]3COc4ccccc4O3)CC2)C1=O [Compound of example 17, (S)-1-(4-(4-((2,3-Dihydrobenzo[b][1,4]dioxin-2-yl)methyl)piperazin-1-yl)-1,2,5-thiadiazol-3-yl)-3,3-dimethylpyrrolidin-2-one] | < 0.1 | < 0.01 | > 449 | > 10000

More lines, in order of falling IC50 [1], values ahead:

Row | Kb [1] [nM] | IC50 [1] [nM] | Kb [2] [nM] | IC50 [2] [nM] | SMILES
4 | 1650 | 166 | > 449 | > 10000 | NC(=O)c1nsnc1N1CCN(C[C@H]2COc3ccccc3O2)CC1 [Compound of example 27, (S)-4-(4-((2,3-Dihydrobenzo[b][1,4]dioxin-2-yl)methyl)piperazin-1-yl)-1,2,5-thiadiazole-3-carboxamide]
5 | 135 | 13.6 | 298 | 6650 | c1ccc2c(c1)OC[C@H](CN1CCN(c3nsc4cccnc34)CC1)O2 [Compound of example 36, (S)-3-(4-((2,3-Dihydrobenzo[b][1,4]dioxin-2-yl)methyl)piperazin-1-yl)isothiazolo[4,5-b]pyridine hydrochloride]
6 | 2.13 | 0.21 | 120 | 2680 | CCOC(=O)c1c(N2CCN(C[C@H]3COc4ccccc4O3)CC2)nn(C)c1C [Compound of example 12, (S)-Ethyl 3-(4-((2,3-dihydrobenzo[b][1,4]dioxin-2-yl)methyl)piperazin-1-yl)-1,5-dimethyl-1H-pyrazole-4-carboxylate]
